# Results from patent US6630500B2, “Selected fused pyrrolocarbazoles” (Cephalon, Inc., priority 2000, dated 2003).
# Columns and labels:
# Format in all cases: biochemical
# [1] = biological target: T1, VEGF receptor (human flk-1, KDR, VEGFR2) kinase domain (Homo sapiens, UniProt P35968); experiment: Inhibition of VEGF receptor kinase activity (ELISA); details: 40 μM ATP; for IC50: values without % sign
# T1 construct: VEGF receptor (human flk-1, KDR, VEGFR2) kinase domain; made in house
# Protocol: Fused pyrrolocarbazole compounds were examined for their inhibitory effects on the kinase activity of baculovirus-expressed VEGF receptor (human flk-1, KDR, VEGFR2) kinase domain using the procedure described for the trkA kinase ELISA assay described below. The kinase reaction mixture, consisting of 50 mM Hepes, pH 7.4, 40 μM ATP, 10 mM MnCl2, 0.1% BSA, 2% DMSO, and various concentrations of inhibitor, was transferred to PLC-γ/GST-coated plates. VEGFR kinase was added and the reaction was allowed to proceed for 15 min. at 37° C. Detection of phosphorylated product was accomplished by addition of anti-phosphotyrosine antibody (UBI). A secondary enzyme-conjugated antibody was delivered to capture the antibody-phosphorylated PLC-γ/GST complex. The activity of the bound enzyme was measured via an amplified detection system (Gibco-BRL). Inhibition data were analyzed using the sigmoidal dose-response (variable slope) equation in GraphPad Prism.
# Selected isomeric fused pyrrolocarbazole and isoindolone compounds can be tested for their ability to inhibit the kinase activity of baculovirus-expressed human trkA cytoplasmic domain using an ELISA-based assay as previously described (Angeles et al., Anal. Biochem. 236: 49-55, 1996). Briefly, the 96-well microtiter plate is coated with substrate solution (recombinant human phospholipase C-γl/glutathione S-transferase fusion protein (Rotin et al., EMBO J., 11: 559-567, 1992). Inhibition studies are performed in 100 μl assay mixtures containing 50 mM Hepes, pH 7.4, 40 μM ATP, 10 mM MnCl2, 0.1% BSA, 2% DMSO, and various concentrations of inhibitor. The reaction is initiated by addition of trkA kinase and allowed to proceed for 15 minutes at 37° C. An antibody to phosphotyrosine (UBI) is then added, followed by a secondary enzyme-conjugated antibody, alkaline phosphatase-labelled goat anti-mouse IgG (Bio-Rad). The activity of the bound enzyme is measured via an amplified detection system (Gibco-BRL). Inhibition data are analyzed using the sigmoidal dose-response (variable slope) equation in GraphPad Prism.
# MLK1 = biological target: T2, MLK1 (Homo sapiens, UniProt P80192); experiment: Inhibition of Mixed Lineage Kinase-1 (MLK1) activity; details: 60 μM ATP; for IC50: values without % sign
# T2 construct: 1 μg/ml of baculoviral GST-MLK1KD; GST (N); made in house
# Protocol: The kinase activity of MLK1 was assessed using the Millipore Multiscreen TCA “in-plate” format as described for protein kinase C (Pitt & Lee, J. Biomol. Screening, 1: 47-51, 1996). Briefly, each 50-μl assay mixture contained 20 mM Hepes, pH 7.2, 5 mM EGTA, 15 mM MgCl2, 25 mM β-glycerophosphate, 60 μM ATP, 0.25 μCi [γ-^32P]ATP, 0.1% BSA, 500 μ/ml myelin basic protein (UBI #13-104), 2% DMSO, […], and 1 μg/ml of baculoviral GST-MLK1KD. Samples were incubated for 15 min at 37° C. The reaction was stopped by adding ice cold 50% TCA and the proteins were allowed to precipitate for 30 min at 4° C. The plates were then washed with ice cold 25% TCA. Supermix scintillation cocktail was added, and the plates were allowed to equilibrate for 1-2 hours prior to counting using the Wallac MicroBeta 1450 PLUS scintillation counter.
# MLK2 = biological target: T3, MLK2 (Homo sapiens, UniProt Q02779); experiment: Inhibition of Mixed Lineage Kinase-2 (MLK2) activity; details: 100 μM ATP; for IC50: values without % sign; for inhibition at 0.1 µM: 100 nM compound
# T3 construct: fused on or other part: GST tag
# Protocol: (§1) The kinase activity of MLK1 was assessed using the Millipore Multiscreen TCA “in-plate” format as described for protein kinase C (Pitt & Lee, J. Biomol. Screening, 1: 47-51, 1996). Briefly, each 50-μl assay mixture contained 20 mM Hepes, pH 7.2, 5 mM EGTA, 15 mM MgCl2, 25 mM β-glycerophosphate, 60 μM ATP, 0.25 μCi [γ-^32P]ATP, 0.1% BSA, 500 μ/ml myelin basic protein (UBI #13-104), 2% DMSO, 1 μM of test compound, and 1 μg/ml of baculoviral GST-MLK1KD. Samples were incubated for 15 min at 37° C. The reaction was stopped by adding ice cold 50% TCA and the proteins were allowed to precipitate for 30 min at 4° C. The plates were then washed with ice cold 25% TCA. Supermix scintillation cocktail was added, and the plates were allowed to equilibrate for 1-2 hours prior to counting using the Wallac MicroBeta 1450 PLUS scintillation counter.
# (§2) Assays were performed using the Millipore Multiscreen plate format as described for MLK1. Each 50-μl assay mixture contained 20 mM Hepes, pH 7.2, 5 mM EGTA, 15 mM MgCl2, 25 mM β-glycerophosphate, 100 μM ATP, 0.25 μCi [γ-^32P]ATP, 0.1% BSA, 500 μg/ml myelin basic protein (UBI #13-104), 2% DMSO, various concentrations of test compound, and 3 μg/ml of baculoviral GST-MLK2KDLZ. Samples were incubated for 15 min. at 37° C. The reaction was stopped by adding ice cold 50% TCA and the proteins were allowed to precipitate for 30 min at 4° C. The plates were then washed with ice cold 25% TCA. Supermix scintillation cocktail was added, and the plates were allowed to equilibrate for 1-2 hours prior to counting.
# MLK3 = biological target: T4, MLK3 (Homo sapiens, UniProt Q16584); experiment: Inhibition of Mixed Lineage Kinase-3 (MLK3) activity; details: 100 μM ATP; for IC50: values without % sign
# T4 construct: 2 μg/ml of baculoviral GST-MLK3KD; GST (N); made in house
# Protocol: as §1
# as §2, with “MLK1. Briefly, each” for “MLK1. Each”, “and 2” for “and 3”, “baculoviral GST-MLK3KD. Sample” for “baculoviral GST-MLK2KDLZ. Samples”, “15 min” for “15 min.”
# T4 sequence (Q16584 117-379 limits assumed, species assumed): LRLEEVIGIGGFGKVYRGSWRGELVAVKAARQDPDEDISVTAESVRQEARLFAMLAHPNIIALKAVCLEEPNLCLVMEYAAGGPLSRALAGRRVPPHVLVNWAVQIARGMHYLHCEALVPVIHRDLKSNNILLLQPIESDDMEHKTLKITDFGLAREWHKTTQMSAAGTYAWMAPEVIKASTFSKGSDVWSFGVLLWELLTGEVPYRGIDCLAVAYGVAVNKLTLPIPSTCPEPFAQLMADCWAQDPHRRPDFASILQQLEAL
# T1 sequence (P35968 834-1162 limits assumed): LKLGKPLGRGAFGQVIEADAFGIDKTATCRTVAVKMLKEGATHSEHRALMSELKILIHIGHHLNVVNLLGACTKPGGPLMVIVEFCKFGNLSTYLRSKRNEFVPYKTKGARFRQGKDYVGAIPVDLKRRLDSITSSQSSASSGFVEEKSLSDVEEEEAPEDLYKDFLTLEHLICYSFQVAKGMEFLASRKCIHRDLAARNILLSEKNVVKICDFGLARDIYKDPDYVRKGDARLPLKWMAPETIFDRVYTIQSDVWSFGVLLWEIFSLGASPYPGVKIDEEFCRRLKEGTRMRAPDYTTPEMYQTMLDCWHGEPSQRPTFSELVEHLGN
# T3 sequence (Q02779 98-440 limits assumed): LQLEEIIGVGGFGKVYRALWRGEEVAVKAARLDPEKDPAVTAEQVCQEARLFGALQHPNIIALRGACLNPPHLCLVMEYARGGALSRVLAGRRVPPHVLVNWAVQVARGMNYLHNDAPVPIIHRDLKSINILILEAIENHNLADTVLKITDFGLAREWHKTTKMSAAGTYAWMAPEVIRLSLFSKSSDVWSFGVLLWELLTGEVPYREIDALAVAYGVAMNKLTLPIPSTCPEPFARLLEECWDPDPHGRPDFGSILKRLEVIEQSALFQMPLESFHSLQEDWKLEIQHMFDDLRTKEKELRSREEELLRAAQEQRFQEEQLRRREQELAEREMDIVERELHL
# T2 sequence (P80192 144-412 limits assumed, species assumed): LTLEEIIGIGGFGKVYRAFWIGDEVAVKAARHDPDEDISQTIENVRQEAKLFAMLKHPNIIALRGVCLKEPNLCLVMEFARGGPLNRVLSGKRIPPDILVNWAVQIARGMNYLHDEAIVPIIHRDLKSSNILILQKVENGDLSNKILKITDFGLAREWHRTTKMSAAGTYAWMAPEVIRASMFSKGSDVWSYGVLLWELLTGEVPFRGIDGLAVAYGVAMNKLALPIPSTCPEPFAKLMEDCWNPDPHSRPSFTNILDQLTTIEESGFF
IC50 [1],IC50 (MLK1),IC50 (MLK2),IC50 (MLK3),inhibition at 0.1 µM (MLK2),"inhibition at 0.3 µM ([1]; 300 nM compound, read-out: VEGFR2 % inh. @ 300 nM)",inhibition at 0.1 µM (MLK1; 100 nM compound),inhibition at 0.1 µM (MLK3; 100 nM compound),Compound
240 nM,28 nM,131 nM,16 nM,–,–,–,–,"CCOC(C)c1ccc2c(c1)c1c3c(c4c(c1n2CCCO)Cc1ccccc1-4)C(=O)NC3 (single isomer, unassigned) [Compound 12]"
107 nM,22 nM,–,8 nM,39%,–,–,–,"O=C1NCc2c1c1c(c3c2c2ccccc2n3CCO)Cc2ccccc2-1 [A, reference compound]"
–,–,–,–,0%,17%,8%,30%,"CC(C)CC(N)C(=O)OCCCn1c2ccccc2c2c3c(c4c(c21)Cc1ccccc1-4)C(=O)NC3 (centres unmarked) [C, reference compound]"
12 nM,27 nM,–,16 nM,45%,–,–,–,CC[C@@H](C)OCc1ccc2c(c1)c1c3c(c4c(c1n2CCCO)Cc1ccccc1-4)C(=O)NC3 [Compound 5]
19 nM,38 nM,–,19 nM,51%,–,–,–,CC[C@H](C)OCc1ccc2c(c1)c1c3c(c4c(c1n2CCCO)Cc1ccccc1-4)C(=O)NC3 [Compound 6]
13 nM,19 nM,–,13 nM,76%,–,–,–,CCCOCc1ccc2c(c1)c1c3c(c4c(c1n2CCCO)Cc1ccccc1-4)C(=O)NC3 [Compound 8]
73 nM,20 nM,–,26 nM,62%,–,–,–,COC(C)c1ccc2c(c1)c1c3c(c4c(c1n2CCCO)Cc1ccccc1-4)C(=O)NC3 (centres unmarked) [Compound 13]
31 nM,42 nM,229 nM,32 nM,–,–,–,–,CC(C)OCc1ccc2c(c1)c1c3c(c4c(c1n2CCCOC(=O)CCN)Cc1ccccc1-4)C(=O)NC3 [Compound 20]
18 nM,74 nM,170 nM,28 nM,–,–,–,–,CC(C)OCc1ccc2c(c1)c1c3c(c4c(c1n2CCCOC(=O)CN(C)C)Cc1ccccc1-4)C(=O)NC3 [Compound 22]
208 nM,9 nM,–,5 nM,64%,–,–,–,O=C1NCc2c1c1c(c3c2c2cc(CO)ccc2n3CCCO)Cc2ccccc2-1 [Compound 29]
16 nM,21 nM,86 nM,–,–,–,–,–,CC(C)OCc1ccc2c(c1)c1c3c(c4c(c1n2CCCO)C(CO)c1ccccc1-4)C(=O)NC3 (centres unmarked) [Compound 40]
48 nM,31 nM,–,17 nM,46%,–,–,–,"O=C1NCc2c1c1c(c3c2c2ccccc2n3CCCO)Cc2ccccc2-1 [Compound B, reference compound]"
